According to ChEMBL document CHEMBL6109064, “Functional and structural polypharmacology of indazole-based privileged ligands to tackle the undruggability of membrane transporters” (Eur J Med Chem, 2025):

How the values were obtained:
Type in all cases: cell-based
[1] = target: T1, Solute carrier organic anion transporter family member 2B1 (Homo sapiens, UniProt O94956); experiment: Inhibition of OATP2B1 (unknown origin) transfected in human A-431 cells assessed as inhibition of pyranine uptake preincubated for 5 mins followed by pyranine addition and measured after 15 mins by fluorescence based analysis
T1 sequence (O94956 whole entry): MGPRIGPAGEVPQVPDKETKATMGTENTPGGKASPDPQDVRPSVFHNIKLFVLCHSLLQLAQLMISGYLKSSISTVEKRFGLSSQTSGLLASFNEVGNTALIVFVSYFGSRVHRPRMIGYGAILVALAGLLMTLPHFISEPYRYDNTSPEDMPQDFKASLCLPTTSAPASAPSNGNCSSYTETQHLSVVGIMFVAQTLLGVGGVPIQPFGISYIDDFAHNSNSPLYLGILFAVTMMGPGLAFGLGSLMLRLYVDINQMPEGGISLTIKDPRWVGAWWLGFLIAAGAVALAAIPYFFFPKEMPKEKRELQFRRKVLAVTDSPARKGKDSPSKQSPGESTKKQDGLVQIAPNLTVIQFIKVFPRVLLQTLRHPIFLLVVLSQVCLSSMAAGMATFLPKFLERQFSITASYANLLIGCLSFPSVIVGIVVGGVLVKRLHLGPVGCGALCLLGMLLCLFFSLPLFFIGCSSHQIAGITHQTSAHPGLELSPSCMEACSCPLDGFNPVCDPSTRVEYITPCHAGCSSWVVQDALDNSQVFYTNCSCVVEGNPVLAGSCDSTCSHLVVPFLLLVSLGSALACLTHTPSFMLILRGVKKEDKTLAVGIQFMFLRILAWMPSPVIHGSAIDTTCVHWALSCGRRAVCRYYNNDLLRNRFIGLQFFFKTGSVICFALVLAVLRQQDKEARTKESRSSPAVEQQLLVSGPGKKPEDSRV

[2] = target: T2, Solute carrier organic anion transporter family member 1B3 (Homo sapiens, UniProt Q9NPD5); experiment: Inhibition of OATP1B3 (unknown origin) transfected in human A-431 cells assessed as inhibition of DHPDS uptake preincubated for 5 mins followed by DHPDS addition and measured after 10 mins by fluorescence based analysis
T2 sequence (Q9NPD5 whole entry): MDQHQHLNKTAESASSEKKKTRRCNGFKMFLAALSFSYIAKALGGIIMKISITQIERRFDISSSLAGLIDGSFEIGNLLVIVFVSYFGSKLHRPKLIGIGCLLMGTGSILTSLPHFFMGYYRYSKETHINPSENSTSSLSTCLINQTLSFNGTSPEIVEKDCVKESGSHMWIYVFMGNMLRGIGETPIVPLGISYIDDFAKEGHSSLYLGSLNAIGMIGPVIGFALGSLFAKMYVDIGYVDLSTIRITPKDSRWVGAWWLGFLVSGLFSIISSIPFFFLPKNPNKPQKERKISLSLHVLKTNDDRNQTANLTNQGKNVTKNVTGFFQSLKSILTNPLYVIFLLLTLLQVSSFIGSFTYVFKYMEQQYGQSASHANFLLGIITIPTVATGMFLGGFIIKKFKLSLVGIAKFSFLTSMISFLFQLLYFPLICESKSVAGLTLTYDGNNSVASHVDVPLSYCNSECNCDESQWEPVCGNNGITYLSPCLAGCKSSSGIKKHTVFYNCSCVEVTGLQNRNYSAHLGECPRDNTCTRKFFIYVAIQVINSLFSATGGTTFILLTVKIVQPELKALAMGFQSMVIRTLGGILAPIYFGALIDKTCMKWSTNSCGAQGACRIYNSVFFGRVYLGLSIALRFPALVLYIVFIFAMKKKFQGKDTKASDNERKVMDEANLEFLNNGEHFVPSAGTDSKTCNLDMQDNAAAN

[3] = target: T3, Broad substrate specificity ATP-binding cassette transporter ABCG2 (Homo sapiens, UniProt Q9UNQ0); experiment: Inhibition of ABCG2 (unknown origin) expressed in dog MDCK-II-BCRP cells assessed as increase in Hoechst 33342 fluorescence intensity using Hoechst 33342 as tracer preincubated for 30 mins followed by Hoechst 33342 addition and measured after 120 mins by fluorescence based analysis
T3 sequence (Q9UNQ0 whole entry): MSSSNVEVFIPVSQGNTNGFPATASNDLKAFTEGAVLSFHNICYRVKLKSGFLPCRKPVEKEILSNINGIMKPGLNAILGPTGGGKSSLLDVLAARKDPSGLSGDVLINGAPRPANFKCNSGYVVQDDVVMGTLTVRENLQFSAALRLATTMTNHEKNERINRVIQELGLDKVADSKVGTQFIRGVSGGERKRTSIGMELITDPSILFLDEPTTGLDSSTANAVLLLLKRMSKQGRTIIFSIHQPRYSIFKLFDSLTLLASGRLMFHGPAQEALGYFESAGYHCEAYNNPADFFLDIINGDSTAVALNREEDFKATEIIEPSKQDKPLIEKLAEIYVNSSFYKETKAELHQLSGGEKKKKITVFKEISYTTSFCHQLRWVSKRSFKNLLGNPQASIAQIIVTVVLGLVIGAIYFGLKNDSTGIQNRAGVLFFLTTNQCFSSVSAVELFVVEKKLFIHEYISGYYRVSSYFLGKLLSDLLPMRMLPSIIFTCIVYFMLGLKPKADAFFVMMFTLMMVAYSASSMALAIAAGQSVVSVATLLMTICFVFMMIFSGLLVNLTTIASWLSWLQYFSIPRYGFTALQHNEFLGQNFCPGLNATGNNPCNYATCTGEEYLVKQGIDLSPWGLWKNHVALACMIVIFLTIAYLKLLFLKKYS

IC50 [1] [nM]	IC50 [2] [nM]	IC50 [3] [nM]	Structure (SMILES)
124	1800	6290	COc1cccc(NC(=O)c2nn(CC(=O)Nc3ccccc3OC)c3ccccc23)c1
167	14100	1030	O=C(Cn1nc(C(=O)Nc2ccccn2)c2ccccc21)Nc1cc(Cl)ccc1Cl
155	1840	6560	O=C(Cn1nc(C(=O)Nc2cccnc2)c2ccccc21)Nc1ccc(Cl)cc1
583	2290	2070	COc1cccc(NC(=O)Cn2nc(C(=O)Nc3cccc(OC)c3)c3ccccc32)c1
